Assay results from the NIST ThermoML archive (doi:10.1016/j.jct.2016.03.034).

How the values were obtained:
[1] = 101.33 kPa, Liquid; for mass density: Vibrating tube method; for viscosity: Capillary tube (Ostwald / Ubbelohde) method
[2] = xn = mol fraction of the nth substance listed; settings: 100 kPa, Liquid, x1 = 1; for viscosity: Capillary tube (Ostwald / Ubbelohde) method; for mass density: Vibrating tube method

CCCCCCCCn1cc[n+](C)c1.O=S(=O)([N-]S(=O)(=O)C(F)(F)F)C(F)(F)F
[1]
Settings	mass density [kg/m3]	viscosity [mPa·s]
273.15 K	1340.42	–
283.15 K	1331.26	208.88
293.15 K	1324.82	114.86
298.15 K	1320.47	88.59
303.15 K	1316.05	69.08
308.15 K	1311.64	55.38
313.15 K	1307.24	45.03
318.15 K	1302.85	37.25
323.15 K	1298.47	30.83

CCCCCC[n+]1ccn(C)c1.O=S(=O)([N-]S(=O)(=O)C(F)(F)F)C(F)(F)F
[1]
Settings	mass density [kg/m3]	viscosity [mPa·s]
273.15 K	1395.43	279.26
278.15 K	1390.66	–
283.15 K	1386.02	148.8
288.15 K	1381.44	–
293.15 K	1376.84	87.29
298.15 K	1371.81	70.52
303.15 K	1367.68	55.92
308.15 K	1363.11	47.46
313.15 K	1357.51	37.22
318.15 K	1352.62	31.35
323.15 K	1349.46	25.95

CCn1cc[n+](C)c1.O=S(=O)([N-]S(=O)(=O)C(F)(F)F)C(F)(F)F
[1]
Settings	mass density [kg/m3]	viscosity [mPa·s]
293.15 K	1523.44	37.8
298.15 K	1518.3	31.79
303.15 K	1513.11	26.84
308.15 K	1507.9	22.9
313.15 K	1502.68	19.75
318.15 K	1497.48	17.05
323.15 K	1492.24	15.02

CCCCCCCCn1cc[n+](C)c1.O=S(=O)([N-]S(=O)(=O)C(F)(F)F)C(F)(F)F + O=C1CCCO1
[2]
Settings	mass density [kg/m3]	viscosity [mPa·s]
293.15 K	1324.82	114.86
298.15 K	1320.47	88.59
303.15 K	1316.05	69.08
308.15 K	1311.64	56.43
313.15 K	1307.24	45.03
318.15 K	1302.85	37.25
323.15 K	1298.47	30.83

CCCCCC[n+]1ccn(C)c1.O=S(=O)([N-]S(=O)(=O)C(F)(F)F)C(F)(F)F + O=C1CCCO1
[2]
Settings	mass density [kg/m3]	viscosity [mPa·s]
293.15 K	1376.84	87.29
298.15 K	1371.81	70.52
303.15 K	1367.68	55.92
308.15 K	1363.11	47.46
313.15 K	1357.51	37.22
318.15 K	1352.62	31.35
323.15 K	1349.46	25.95

CCn1cc[n+](C)c1.O=S(=O)([N-]S(=O)(=O)C(F)(F)F)C(F)(F)F + O=C1CCCO1
[2]
Settings	mass density [kg/m3]	viscosity [mPa·s]
293.15 K	1523.44	37.8
298.15 K	1518.3	31.79
303.15 K	1513.11	26.84
308.15 K	1507.9	22.9
313.15 K	1502.68	19.75
318.15 K	1497.48	17.05
323.15 K	1492.24	15.02
